From patent US6410515B1, “Peptide, a method for its preparation and a pharmaceutical composition containing the peptide” (Immunotech Developments Inc., priority 1995, dated 2002)

Key:
[1] = tested on: mixed lymphocyte culture (MLC); experiment: Mixed lymphocyte culture (MLC) proliferation; assay type: cell-based, mice; conditions: FIG. 1
Description: The influence of the peptides of the invention on the proliferation of a mixed lymphocyte culture (MLC) was studied. The MLC experimental system is an in vitro analogue of the GVHD reaction.
Donor spleen cells from C57B1 mice ([…]) were injected into recipient (CBA×C57B1) F1 mice. Bone marrow was removed from the recipient and cultured for 4 days. The cultured cells were separated into 3 test groups, one group was treated with iDD, one with the L-peptide H-Ile-Glu-Trp-OH and one was a control. Each test peptide was added in various concentrations. Each determination was done in triplicate. ^3H-thymidine was added to each culture for 16 hours and the index of the proliferation of the cells was calculated.

[2] = tested on: caryocytes in femoral marrow; experiment: Reconstitution of caryocyte numbers in femoral marrow after 4 Gy; assay type: in vivo, mice
Description: The reconstitution of caryocyte numbers and that of hemopoietic progenitors was studied in femoral marrow after irradiation in the dose of 4 Gy and the peptide injection. The test was performed in 12 groups of mice, 6 animals each, and lasted 14 days. Intraperitoneal injections of the peptide in a dose of 10 μg/kg were made 1 day and 2 days before the irradiation.

[3] = tested on: hemopoietic progenitor cells (CFU-S); experiment: CFU-S content in bone marrow of mice irradiated with 4 Gy; assay type: in vivo; conditions: day 8, control 401 ± 48
Description: The effect of H-A-D-Trp-Y, where A is D-Glu or D-iGlu and Y is OH or a substituted amide, on protection and reconstitution of the population of hemopoietic progenitor cells in cytopenias of different origin was studied.
Ionising radiation was used to deplete bone marrow. Donor mice were irradiated at a dose of 4 Gy. For each of the two peptides, 10 μg/kg was injected intraperitoneally 1 hour, 1 day or 2 days before the irradiation (groups of 12 mice each). Bone marrow was taken from femoral bones 8 days after the irradiation. Eight days generally marks the beginning of an exponential reconstitution of both the total number of cells and the population of hemopoietic progenitors in the bone marrow, which were depleted as a result of irradiation.
On the 8th day a sharp statistically significant increase was recorded in the hemopoietic progenitor cells count in the bone marrow of the mice irradiated in the dose of 4 Gy who had received the peptide 2 days before the irradiation.

| Substance | Effect on proliferation of the allogenic lymphocytes (MLC) ([1]; 0.1 μg/ml) | Effect on proliferation of the allogenic lymphocytes (MLC) ([1]; concentrations 1, 10, 20 μg/ml) | Caryocyte count ([2]; 10 μg/kg IP 1 day before 4 Gy, 4 days after irradiation, 4 Gy alone 9,0 ± 0,3) | Caryocyte count ([2]; 10 μg/kg IP 1 day before 4 Gy, 7 days after irradiation, 4 Gy alone 10,6 ± 0,8) | Caryocyte count ([2]; 10 μg/kg IP 1 day before 4 Gy, 11 days after irradiation, 4 Gy alone 17,0 ± 0,6) | Caryocyte count ([2]; 10 μg/kg IP 1 day before 4 Gy, 14 days after irradiation, 4 Gy alone 17,0 ± 1,2) | Caryocyte count ([2]; 10 μg/kg IP 2 days before 4 Gy, 4 days after irradiation, 4 Gy alone 9,0 ± 0,3) | Caryocyte count ([2]; 10 μg/kg IP 2 days before 4 Gy, 7 days after irradiation, 4 Gy alone 10,6 ± 0,8) | Caryocyte count ([2]; 10 μg/kg IP 2 days before 4 Gy, 11 days after irradiation, 4 Gy alone 17,0 ± 0,6) | Caryocyte count ([2]; 10 μg/kg IP 2 days before 4 Gy, 14 days after irradiation, 4 Gy alone 17,0 ± 1,2) | CFU-S count per femur ([3]; 10 μg/kg IP 1 hour before 4 Gy) | CFU-S count per femur ([3]; 10 μg/kg IP 1 day before 4 Gy) | CFU-S count per femur ([3]; 10 μg/kg IP 2 days before 4 Gy) |
| --- | --- | --- | --- | --- | --- | --- | --- | --- | --- | --- | --- | --- | --- |
| H-Ile-Glu-Trp-OH [reference compound] | negligible inhibition | stimulates the proliferation | – | – | – | – | – | – | – | – | – | – | – |
| H-D-Glu-D-Trp-OH | – | – | 8,0 ± 0,7 × 10^6 | 16,4 ± 0,7 × 10^6 | 16,0 ± 1,3 × 10^6 | 15,0 ± 0,6 × 10^6 | 8,5 ± 0,5 × 10^6 | 20,0 ± 0,7 × 10^6 | 23,0 ± 1,9 × 10^6 | 24,5 ± 0,9 × 10^6 | 450 ± 95 | 780 ± 92 | 955 ± 93 |
